Measurements taken from patent US6774142B2, “Inhibition by 3-deoxyflavonoids of T-lymphocyte activation and therapies related thereto” (priority 2001, dated 2004).

Legend:
Kv1.3 channel = Kv1.3 channel (Homo sapiens, UniProt P22001); test: Inhibition of the Kv1.3 channel, patch clamp method; assay type: cell-based
Description: Furthermore, the invention deals with ion channels that constitute a set of molecular targets through which these 3-deoxyflavonoids exert their biological effects. The flavonoid compounds of this invention can lower and stabilize blood glucose levels in Type-I and Type-II diabetics, and can also ameliorate symptoms of lupus erythematosus, an autoimmune disease affecting several organs. Type-I diabetes is an autoimmune disease in which autoreactive lymphocytes destroy pancreatic P-cells, while the etiology of Type-II diabetes is due to inadequate insulin production and decreased ability of insulin to affect its target end-organs. Since ion channels play a critical role in lymphocytes and in pancreatic β-cell signaling, it is most likely that at least some of the therapeutic effects of flavonoids may arise through blockade of ion channels. […] The non-toxic nature of these flavonoids in humans makes them attractive as nutraceuticals that could complement or replace existing medications and therapies. Inhibition of the Kv1.3 channel was performed utilizing the patch clamp method desctribed by […]. Biol. Chem. 276: 12249.

[1] = system: cytotoxic T lymphocyte line CTL264; test: CTL cytotoxicity against 264 peptide-pulsed T2 target cells (calcein release); assay type: cell-based; conditions: for inhibition of calcein release: FIG. 3
Method: A cytotoxic T lymphocyte line (CTL—designated CTL264) specific for a peptide antigen (aa 264-272, referred to as the 264 peptide) derived from the tumor suppressor protein p53 was used as a […] to test if luteolin had any effect on CTL cytotoxicity against 264 peptide-pulsed T2 target cells. T2 target cells were pulsed with 264 peptide for 2 hours and labeled with Calcein-AM for 30 minutes and washed three times. Mixtures of T2 cells and CTL264 were incubated for 4 hours. 100 μL supernatants were transferred to a 96-well flat-bottom microtiter plates to read fluorescence (538 nm) to measure calcein release due to cell lysis.
The spontaneous calcein release in cytotoxic T Lymphocytes was determined by incubation of targets in RPMI-10. The maximal calcein release was determined by incubation of targets in Triton X-100. Data are reported as the mean of triplicate determinations.

[2] = system: chronic Type I (BBWor) diabetic rats; test: Blood glucose in chronic Type I (BBWor) diabetic rats; assay type: in vivo, rat; conditions: for blood glucose after treatment: 6 hours; for blood glucose before treatment: time 0; for decrease in blood glucose levels: within 6 hours of a single treatment (luteolin 3 mg intragastrically; PZI insulin subcutaneous)
Method: The effect of Luteolin treatment in chronic Type I (BBWor) diabetic rats was examined. In this study, lean male diabetic rats were randomly assigned to 3 treatment groups (3-4 rats/group). Each group received either: (1) 3 mg dose of luteolin intragastrically; (2) a subcutaneous injection of PZI insulin (0.9-1.2 mU/day); or (3) no treatment. Blood glucose was evaluated from time 0 through 6 hours. The data was expressed as average blood glucose relative to time post treatment.

[3] = system: obese Type II (BBZDR) diabetic rats; test: Blood glucose in Type II BBZDR rats, two weeks of treatment; assay type: in vivo, rat
Method: In this example, the dose of luteolin was standardized to 50 mg three times per day in the same group of Type II BBZDR rats from Example 5 over an extended period of treatment of two weeks. […] The data was expressed for each rat as a percentage change in blood glucose level relative to each individual pre-treatment level.

[4] = system: chronic Type 2 diabetic rats; test: Blood glucose in chronic Type 2 diabetic rats, 24 hr dose study; assay type: in vivo, rat
Method: Luteolin was also evaluated for its effect to reduce hyperglycemia in chronic Type 2 diabetic rats. In this study, the dose and frequency of Luteolin treatment was increased to compensate for the enhanced metabolism of the obese rat. First, a 24 hour baseline study was performed on 9 chronic Type 2 rats. […] These same rats were randomly assigned to 3 groups and given 50, 150 and 250 mg doses of Luteolin at three times during the 24 hr period (11 AM, 2 PM and 8 PM). Blood glucose analysis was evaluated every 2 hours.

[5] = cited from earlier work
[6] = 50 mg three times per day for two weeks
[7] = fried onions, equivalent to 64 mg quercetin aglycone

Kv1.3 channel, sequence (P22001 whole entry): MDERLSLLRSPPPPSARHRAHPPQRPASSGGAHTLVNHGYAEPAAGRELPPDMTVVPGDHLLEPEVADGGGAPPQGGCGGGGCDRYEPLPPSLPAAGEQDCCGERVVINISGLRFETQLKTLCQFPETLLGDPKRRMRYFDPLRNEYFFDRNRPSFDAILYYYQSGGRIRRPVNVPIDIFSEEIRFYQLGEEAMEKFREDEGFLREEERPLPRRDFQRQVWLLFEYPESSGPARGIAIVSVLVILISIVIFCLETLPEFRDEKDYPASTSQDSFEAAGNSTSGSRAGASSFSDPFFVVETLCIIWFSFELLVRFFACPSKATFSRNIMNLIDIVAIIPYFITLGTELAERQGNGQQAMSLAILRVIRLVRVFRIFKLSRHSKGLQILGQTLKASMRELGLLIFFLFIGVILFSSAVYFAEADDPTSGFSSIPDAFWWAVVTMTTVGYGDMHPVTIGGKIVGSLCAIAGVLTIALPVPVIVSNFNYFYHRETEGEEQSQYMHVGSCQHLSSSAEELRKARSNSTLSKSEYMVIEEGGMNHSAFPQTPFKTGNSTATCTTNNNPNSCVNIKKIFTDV

**Q.** What does the source list for `O=c1cc(-c2ccc(O)c(O)c2)oc2cc(O)cc(O)c12` [luteolin, 3′,4′,5,7-tetrahydroxyflavone]?
**A.** block of Kv1.3 channel current vs. control (Kv1.3 channel; 20 uM concentration): approximately 25%; block of Kv1.3 channel current vs. control (Kv1.3 channel; 100 uM concentration): 100%; inhibition of CTL cytotoxicity against 264-pulsed T2 target cells ([1]; 4 hours incubation, FIG. 2): significantly inhibited; inhibition of calcein release [1]: inhibition of calcein release; blood glucose after treatment [2]: 307 mg/dL; blood glucose before treatment [2]: 445 mg/dL; decrease in blood glucose levels [2]: 31%; average blood glucose after treatment [3, 6]: 389 mg/dL; average drop in blood glucose levels [3, 6]: 41.1%; average blood glucose pre-treatment ([3]; before treatment): 660 mg/dL; increase in blood glucose, rat #3 ([3]; rat #3 with esophagial fistula, two weeks): 9.3%; decrease in blood glucose levels ([4]; 50 mg three times a day (150 mg total), within 24 hr): 10.2%; drop in blood glucose ([4]; 150 mg three times (450 mg total), 24 hr): 22.9%; decrease in glucose ([4]; 250 mg three times (750 mg total), 24 hr): 27.7%; blood glucose after treatment, one rat ([4]; intermediate dose, one rat, 18 hr): 372 mg/dL; blood glucose before treatment, one rat ([4]; intermediate dose, one rat, start): 777 mg/dL; reduction of blood glucose, one rat ([4]; intermediate dose, one rat, within 18 hr): 52%; reduction of hyperglycemia over all doses ([4]; over a 24 hour period, 50-250 mg doses): 10-28%

**Q.** For `O=c1c(O)c(-c2ccc(O)c(O)c2)oc2cc(O)cc(O)c12` [quercetin], which distribution phase half-life [5, 7] is on record?
**A.** Its distribution phase half-life is 3.8 h.

**Q.** What about the elimination phase half-life [5, 7] of the same molecule?
**A.** Its elimination phase half-life is 16.8 h.

**Q.** What about the “time of peak plasma levels” value [5, 7] of the same molecule?
**A.** Its value is 2.9 h.

**Q.** What about the human absorption ([5]; oral) of the same molecule?
**A.** The human absorption was 24%.

**Q.** Which “inhibition of calcein release” value [1] does the source give for `O=c1cc(-c2cc(O)c(O)c(O)c2)oc2cc(O)cc(O)c12` [tricetin] here?
**A.** Its value is “inhibition of calcein release”.

**Q.** For insulin [reference compound], which “blood glucose after treatment” value [2] is on record?
**A.** Its value is 112 mg/dL.

**Q.** What about the “blood glucose before treatment” value [2] of the same molecule?
**A.** Its value is 415 mg/dL.

**Q.** And the “decrease in blood glucose levels” value [2]?
**A.** The value was 75%.
